Data published in EP0044212B1, “Herbicidal o-alkylsulfonyloxy- and o-alkylsulfonylamino-benzenesulfonamides” (E.I. DU PONT DE NEMOURS AND COMPANY, priority 1980, dated 1982).

What was measured:
[1] = system: Oats; assay: Test C pre-emergence on Fallsington silt loam soil; format: in vivo, Clinton oats; conditions: 0.03 kg/ha, 28 days
From the text: (§1) The high herbicidal activity of two of the compounds from within the scope of the invention is evident from the results obtained in this test. The experiment concerned pre-emergence applications on soil. The containers used were 25 cm diameter plastic pots filled with Fallsington silt loam. One set of pots was planted to weeds, the seeds of which were uniformly mixed with the top 1.2 cm layer of soil. The species selected were: johnsongrass (Sorghum halepense), barnyardgrass (Echinochloa crusgalli), crabgrass (Digitaria sanguinalis), giant foxtail (Setaria faberii), velvetleaf (Abutilon theophrasti), jimsonweed (Datura stramonium), mustard (Brassica arvensis), and pigweed (Amaranthus retroflexus). Another set of pots were planted to the following crops with from one to four species per pot: corn (planting depth 3.7 cm), cotton, soybeans, sunflower, Clinton oats, wheat, Black Valentine beans, rice, sorghum, peas, flax, and peanuts (all at 2.5 cm depth), cucumbers, cabbage, alfalfa, safflower, sugarbeets, tomato, spinach, barley, and Kentucky bluegrass (all at 1.2 cm depth). Immediately after planting, the test chemical was applied to the soil surfaces dissolved in a non-phytotoxic solvent. One pot from the weed phase and one of each of the crop species were left untreated for the purpose of comparison. […]

[2] = system: Ky. bluegrass; assay: Test C pre-emergence on Fallsington silt loam soil; format: in vivo, Kentucky bluegrass; conditions: 0.03 kg/ha, 28 days
From the text: as §1

In the case of `COc1cc(OC)nc(NC(=O)NS(=O)(=O)c2ccccc2OS(C)(=O)=O)n1` [Compound 1, N-[(4,6-Dimethoxypyrimidin-2-yl)aminocarbonyl]-2-hydroxybenzenesulfonamide, methanesulfonate], the Oats response rating [1] is reported as 4G and the “Ky. bluegrass response rating” value [2] is reported as 7G.
